How the values were obtained:
[1] = test system: Puccinia recondita f. sp. Tritici; assay: Fungicidal activity against Puccinia recondita f. sp. Tritici / wheat / leaf disc preventative (brown rust); type: in vivo; conditions: foliar, 200 ppm in the applied formulation, wheat leaf segments cv. Kanzler, inoculated 1 day after application, vs untreated control, read-out: disease control
How it was run: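 Compound, diluted from DMSO solution into aqueous 0.025% Tween20, is sprayed at 200 ppm onto cut wheat segments (cv. Kanzler) placed on water agar. One day on, segments receive a fungal spore suspension and are incubated at 19° C., 75% rh, 12 h photoperiod, with % control vs untreated scored at 7–9 days.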

[2] = test system: Puccinia recondita f. sp. Tritici; assay: Fungicidal activity against Puccinia recondita f. sp. Tritici / wheat / leaf disc curative (brown rust); type: in vivo; conditions: foliar, 24 h, 200 ppm in the applied formulation, wheat leaf segments cv. Kanzler, applied 1 day after inoculation, vs untreated control, read-out: disease control
Method: Leaf disks or leaf segments of various plant species are cut from plants grown in a greenhouse. The cut leaf disks or segments are placed in multiwell plates (24-well format) onto water agar. The leaf disks are sprayed with a test solution before (preventative) or after (curative) inoculation. Compounds to be tested are prepared as DMSO solutions (max. 10 mg/ml) which are diluted to the appropriate concentration with 0.025% Tween20 just before spraying. The inoculated leaf disks or segments are incubated under defined conditions (temperature, relative humidity, light, etc.) according to the respective test system. A single evaluation of disease level is carried out 3 to 14 days after inoculation, depending on the pathosystem. Percent disease control relative to the untreated check leaf disks or segments is then calculated.
Wheat leaf segments cv. Kanzler are placed on agar in multiwell plates (24-well format). The leaf segments are then inoculated with a spore suspension of the fungus. Plates were stored in darkness at 19° C. and 75% relative humidity. The formulated test compound diluted in water was applied 1 day after inoculation. The leaf segments were incubated at 19° C. and 75% relative humidity under a light regime of 12 hours light/12 hours darkness in a climate cabinet and the activity of a compound was assessed as percent disease control compared to untreated when an appropriate level of disease damage appears in untreated check leaf segments (6 to 8 days after application).
The following compounds at 200 ppm in the applied formulation give at least 80% disease control in this test when compared to untreated control leaf disks under the same conditions, which show extensive disease development.

Phakopsora pachyrhizi = assay: Fungicidal activity against Phakopsora pachyrhizi / soybean / leaf disc preventative (Asian soybean rust); type: in vivo; conditions: foliar, 200 ppm in the applied formulation, soybean leaf disks, vs untreated control, read-out: disease control
How it was run: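 Soybean leaf discs on water agar sprayed with compound diluted in water, then inoculated with spores on the lower surface one day later. Kept 24-36 h dark, 20 °C, 75% rh, then 12 h light/12 h dark. Percent disease control versus untreated scored 12-14 days after application.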

[3] = test system: Glomerella lagenarium (Colletotrichum lagenarium); assay: Fungicidal activity against Glomerella lagenarium (Colletotrichum lagenarium) liquid culture / cucumber / preventative (anthracnose); type: cell-based; conditions: Colletotrichum orbiculare, 72 h; 20 ppm in the applied formulation; liquid culture (PDB), growth inhibition measured photometrically 3 to 4 days after application; vs untreated control; read-out: disease control
How it was run: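 Conidia from cryogenic storage were mixed into potato dextrose broth and added to DMSO solutions of test compound in microtiter plates. Plates were incubated at 24° C. and growth inhibition read photometrically 3 to 4 days after application, as percent antifungal activity versus untreated check.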

CC(C=NOC1COC1)NC(=O)c1ccc(-c2noc(C(F)(F)F)n2)cc1 (centres unmarked) [Compound 1.58, N-[1-methyl-2-(oxetan-3-yloxyimino)ethyl]-4-[5-(trifluoromethyl)-1,2,4-oxadiazol-3-yl]benzamide]
≥ 80%: pest or weed control at 200 ppm [1] | pest or weed control at 200 ppm [2] | pest or weed control at 200 ppm (Phakopsora pachyrhizi) | inhibition of growth at 20 ppm [3]

O=C(NCC=NOCCO)c1ccc(-c2noc(C(F)(F)F)n2)cc1 [Compound 1.60, N-[2-(2-hydroxyethoxy-imino)ethyl]-4-[5-(trifluoromethyl)-1,2,4-oxadiazol-3-yl]benzamide]
≥ 80%: pest or weed control at 200 ppm [1] | pest or weed control at 200 ppm [2] | pest or weed control at 200 ppm (Phakopsora pachyrhizi) | inhibition of growth at 20 ppm [3]

NCCON=CCNC(=O)c1ccc(-c2noc(C(F)(F)F)n2)cc1 [Compound 1.66, N-[2-(2-aminoethoxy-imino)ethyl]-4-[5-(trifluoromethyl)-1,2,4-oxadiazol-3-yl]benzamide]
≥ 80%: pest or weed control at 200 ppm [1] | pest or weed control at 200 ppm [2] | pest or weed control at 200 ppm (Phakopsora pachyrhizi) | inhibition of growth at 20 ppm [3]

O=C(NCC=NOC1CCCCO1)c1ccc(-c2noc(C(F)(F)F)n2)cc1 (centres unmarked) [Compound 1.70, N-(2-tetrahydropyran-2-yloxyiminoethyl)-4-[5-(trifluoromethyl)-1,2,4-oxadiazol-3-yl]benzamide]
≥ 80%: pest or weed control at 200 ppm [1] | pest or weed control at 200 ppm [2] | pest or weed control at 200 ppm (Phakopsora pachyrhizi) | inhibition of growth at 20 ppm [3]

CCCON=CCNC(=O)c1ccc(-c2noc(C(F)(F)F)n2)cc1 [Compound 1.72, N-(2-propoxyiminoethyl)-4-[5-(trifluoromethyl)-1,2,4-oxadiazol-3-yl]benzamide]
≥ 80%: pest or weed control at 200 ppm [1] | pest or weed control at 200 ppm [2] | pest or weed control at 200 ppm (Phakopsora pachyrhizi) | inhibition of growth at 20 ppm [3]

C[C@@H](ON=CCNC(=O)c1ccc(-c2noc(C(F)(F)F)n2)cc1)C(=O)O [Compound 1.74, (2R)-2-[2-[[4-[5-(trifluoromethyl)-1,2,4-oxadiazol-3-yl]benzoyl]amino]ethylideneamino] oxypropanoic acid]
≥ 80%: pest or weed control at 200 ppm [1] | pest or weed control at 200 ppm [2] | pest or weed control at 200 ppm (Phakopsora pachyrhizi) | inhibition of growth at 20 ppm [3]

O=C(NCC=NOCC=CCl)c1ccc(-c2noc(C(F)(F)F)n2)cc1 [Compound 1.78, N-[2-(3-chloroallyloxyimino)ethyl]-4-[5-(trifluoromethyl)-1,2,4-oxadiazol-3-yl]benzamide]
≥ 80%: pest or weed control at 200 ppm [1] | pest or weed control at 200 ppm [2] | pest or weed control at 200 ppm (Phakopsora pachyrhizi) | inhibition of growth at 20 ppm [3]

O=C(NCC=NOC/C=C\Cl)c1ccc(-c2noc(C(F)(F)F)n2)cc1 [Compound 1.81, N-[2-[(Z)-3-chloroallyloxy]iminoethyl]-4-[5-(trifluoromethyl)-1,2,4-oxadiazol-3-yl]benzamide]
≥ 80%: pest or weed control at 200 ppm [1] | pest or weed control at 200 ppm [2] | pest or weed control at 200 ppm (Phakopsora pachyrhizi) | inhibition of growth at 20 ppm [3]

CC(ON=CCNC(=O)c1ccc(-c2noc(C(F)(F)F)n2)cc1)C(=O)O (centres unmarked) [Compound 1.82, 2-[2-[[4-[5-(trifluoromethyl)-1,2,4-oxadiazol-3-yl]benzoyl]amino]ethylideneamino] oxypropanoic acid]
≥ 80%: pest or weed control at 200 ppm [1] | pest or weed control at 200 ppm [2] | pest or weed control at 200 ppm (Phakopsora pachyrhizi) | inhibition of growth at 20 ppm [3]

CC(C)(C)ON=CCNC(=O)c1ccc(-c2noc(C(F)(F)F)n2)cc1 [Compound 1.89, N-(2-tert-butoxyiminoethyl)-4-[5-(trifluoromethyl)-1,2,4-oxadiazol-3-yl]benzamide]
≥ 80%: pest or weed control at 200 ppm [1] | pest or weed control at 200 ppm [2] | pest or weed control at 200 ppm (Phakopsora pachyrhizi) | inhibition of growth at 20 ppm [3]

C=CCON=CCNC(=O)c1ccc(-c2noc(C(F)(F)F)n2)cc1 [Compound 1.91, N-(2-allyloxyiminoethyl)-4-[5-(trifluoromethyl)-1,2,4-oxadiazol-3-yl]benzamide]
≥ 80%: pest or weed control at 200 ppm [1] | pest or weed control at 200 ppm [2] | pest or weed control at 200 ppm (Phakopsora pachyrhizi) | inhibition of growth at 20 ppm [3]

CC(C)ON=CCNC(=O)c1ccc(-c2noc(C(F)(F)F)n2)cc1 [Compound 1.94, N-(2-isopropoxyimino-ethyl)-4-[5-(trifluoromethyl)-1,2,4-oxadiazol-3-yl]benzamide]
≥ 80%: pest or weed control at 200 ppm [1] | pest or weed control at 200 ppm [2] | pest or weed control at 200 ppm (Phakopsora pachyrhizi) | inhibition of growth at 20 ppm [3]

O=C(NCC=NOCC(F)(F)F)c1ccc(-c2noc(C(F)(F)F)n2)cc1 [Compound 1.95, N-[2-(2,2,2-trifluoroethoxy-imino)ethyl]-4-[5-(trifluoromethyl)-1,2,4-oxadiazol-3-yl]benzamide]
≥ 80%: pest or weed control at 200 ppm [1] | pest or weed control at 200 ppm [2] | pest or weed control at 200 ppm (Phakopsora pachyrhizi) | inhibition of growth at 20 ppm [3]

C=C(Cl)CON=CCNC(=O)c1ccc(-c2noc(C(F)(F)F)n2)cc1 [Compound 1.100, N-[2-(2-chloroallyloxy-imino)ethyl]-4-[5-(trifluoromethyl)-1,2,4-oxadiazol-3-yl]benzamide]
≥ 80%: pest or weed control at 200 ppm [1] | pest or weed control at 200 ppm [2] | pest or weed control at 200 ppm (Phakopsora pachyrhizi) | inhibition of growth at 20 ppm [3]

O=C(NCC=NOCC1CC1)c1ccc(-c2noc(C(F)(F)F)n2)cc1 [Compound 1.101, N-[2-(cyclopropyl-methoxyimino)ethyl]-4-[5-(trifluoromethyl)-1,2,4-oxadiazol-3-yl]benzamide]
≥ 80%: pest or weed control at 200 ppm [1] | pest or weed control at 200 ppm [2] | pest or weed control at 200 ppm (Phakopsora pachyrhizi) | inhibition of growth at 20 ppm [3]

O=C(NCC=NOC1COC1)c1ccc(-c2noc(C(F)(F)F)n2)cc1 [Compound 1.102, N-[2-(oxetan-3-yloxyimino)ethyl]-4-[5-(trifluoromethyl)-1,2,4-oxadiazol-3-yl]benzamide]
≥ 80%: pest or weed control at 200 ppm [1] | pest or weed control at 200 ppm [2] | pest or weed control at 200 ppm (Phakopsora pachyrhizi) | inhibition of growth at 20 ppm [3]

CC(CNC(=O)c1ccc(-c2noc(C(F)(F)F)n2)cc1)=NOCCO [Compound 1.104]
≥ 80%: pest or weed control at 200 ppm [1] | pest or weed control at 200 ppm [2] | pest or weed control at 200 ppm (Phakopsora pachyrhizi) | inhibition of growth at 20 ppm [3]

CC(CNC(=O)c1ccc(-c2noc(C(F)(F)F)n2)cc1)=NOCCN [Compound 1.110, N-[2-(2-aminoethoxy-imino)propyl]-4-[5-(trifluoromethyl)-1,2,4-oxadiazol-3-yl]benzamide]
≥ 80%: pest or weed control at 200 ppm [1] | pest or weed control at 200 ppm [2] | pest or weed control at 200 ppm (Phakopsora pachyrhizi) | inhibition of growth at 20 ppm [3]

CC(CNC(=O)c1ccc(-c2noc(C(F)(F)F)n2)cc1)=NOC1CCCCO1 (centres unmarked) [Compound 1.114, N-(2-tetrahydropyran-2-yloxyiminopropyl)-4-[5-(trifluoromethyl)-1,2,4-oxadiazol-3-yl]benzamide]
≥ 80%: pest or weed control at 200 ppm [1] | pest or weed control at 200 ppm [2] | pest or weed control at 200 ppm (Phakopsora pachyrhizi) | inhibition of growth at 20 ppm [3]

CCCON=C(C)CNC(=O)c1ccc(-c2noc(C(F)(F)F)n2)cc1 [Compound 1.116, N-(2-propoxyimino-propyl)-4-[5-(trifluoromethyl)-1,2,4-oxadiazol-3-yl]benzamide]
≥ 80%: pest or weed control at 200 ppm [1] | pest or weed control at 200 ppm [2] | pest or weed control at 200 ppm (Phakopsora pachyrhizi) | inhibition of growth at 20 ppm [3]

Reference: patent US11192867B2, “Microbiocidal oxadiazole derivatives” (SYNGENTA PARTICIPATIONS AG, priority 2016, dated 2021)
